{
  "source": "patent US9186416B2",
  "about": "“Immunoconjugates, compositions for making them, and methods of making and use” (priority 2011, dated 2015)",
  "key": {"786-O cell lysate": {"test_system": "786-O cell lysate", "experiment": "Dephosphorylation by 786-O cell lysate", "format": "in vitro ADME, human", "settings": "100 μM compound, 786-O lysate 2 mg/mL protein, pH 5.5, 37° C.", "experimental": "786-O cells, as frozen pellets with an estimated quantity of 10^7 cells per vortexing tube, were resuspended and homogenized in 500 μL of lysis buffer (25 mM NaOAc, 1 mM EDTA, 0.25 M sucrose, 0.1% Triton X-100, pH 5.5). Homogenization involved vortex mixing for 30 sec, followed by a one min cooling on ice. For each tube, three vortex and cooling cycles were performed. Cell samples were then further mixed by shearing in a 19 gauge needle three times.\nFollowing homogenization, the DNA of the cell lysate was hydrolyzed using BENZONASE™ DNAse. Samples were first brought up in 1 mM MgSO4. After mixing, 2 μL of BENZONASE™ DNAse (neat) were added to each vial of lysate (4 μL/mL, v/v, final concentration). Samples were then stored at RT for 15 min and then cooled on ice. For this step, successful DNAse activity was evidenced by appearance of flocculent precipitate. Samples were then spun at maximum speed in a microcentrifuge for 5 min to remove cellular debris. Supernatant was frozen at −70° C. for later use. Protein concentration of the lysate was determined using Pierce BCA Protein Determination methodology (Thermo Scientific).\nA 2000 μM stock solution of the compound of formula (Ia) was prepared. Lysate was diluted to 2.1 mg/mL in lysate buffer. For reaction, 5 μL of the compound (Ia) stock was added to 95 μL of lysate. […]"}, "H226 cell lysates": {"test_system": "H226 cell lysates", "experiment": "Dephosphorylation by H226 cell lysates", "format": "in vitro ADME, human", "settings": "similar experiment"}},
  "data": [
    {"smiles": "Nc1ccc(C(=O)Nc2ccc3[nH]c(C(=O)N4C[C@@H](CCl)c5c4cc(OP(=O)(O)O)c4ccccc54)cc3c2)cc1", "note": "[compound (Ia)]", "values": [
      {"measurement": "time to complete dephosphorylation", "setting": "786-O cell lysate", "value": "≤ 8", "unit": "h"},
      {"measurement": "time to complete dephosphorylation", "setting": "H226 cell lysates", "value": "≤ 3", "unit": "h"}
    ]}
  ]
}
